Test systems include COLO 205; EKVX; HCT-116; HCT-15; HOP-92; Hs-578T; KM-20L2; LOX IMVI; MDA-N; NCI-H23; NCI-H522; OVCAR-3; OVCAR-8; PC-3; RPMI-8226; RXF 393; SF-539; SK-MEL-2; SNB-75; UACC-62.
Common to all, as to test: inhibition of tumour cell growth, NCI panel, 48 h

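Growth conditions: 96-well plates. Treatment: test compound, 48 hours, 5 concentrations. Analysis: linear interpolation between bracketing concentrations; unreached endpoints set to highest concentration. GI50 = concentration required for 50% inhibition of growth.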 Activity calls are given as the source filed them. No stated cut-off is given here; in the data, active = GI50 up to about 1.1 µM and inactive = higher.

As to `COc1cc(C(=O)NC2CCc3cc(OC)c(OC)c(OC)c3-c3ccc(OC)c(=O)cc32)cc(OC)c1OC` (stereo not drawn), the GI50 in the experiment with COLO 205 is 0.0585 µM (active); in the experiment on EKVX, 12 µM (inactive); with HCT-116, 0.043 µM (active); with HCT-15, 3.53 µM; in the experiment on HOP-92, 0.0592 µM (active); in the experiment on Hs-578T it was 0.025 µM (active). In addition, the GI50 in the experiment with KM-20L2 is 0.0817 µM (active); in the experiment on LOX IMVI it was 0.0424 µM (active); with MDA-N, 0.0202 µM (active); with NCI-H23, 0.0809 µM (active); in the experiment on NCI-H522, 0.0234 µM (active); with OVCAR-3 it was 0.0372 µM (active). Further, the GI50 in the experiment with OVCAR-8 was 0.201 µM (active); with PC-3, 0.0807 µM (active); in the experiment on RPMI-8226 it was 0.0279 µM (active); with RXF 393, 0.466 µM (active); with SF-539, 0.0228 µM (active); in the experiment with SK-MEL-2, 0.0935 µM (active). Also, the GI50 was 0.13 µM (active) with SNB-75 and 0.0711 µM (active) in the experiment on UACC-62.
In the case of `NS(=O)(=O)c1cc2c(cc1Cl)NC(C(=O)c1cc(=O)c3ccc(O)cc3o1)=NS2(=O)=O`, the GI50 was > 100 µM (inactive) in the experiment on COLO 205; > 100 µM (inactive) with EKVX; > 100 µM (inactive) in the experiment on HCT-116; greater than 100 µM with HCT-15; > 100 µM (inactive) with HOP-92; > 100 µM (inactive) with KM-20L2. Moreover, the GI50 with LOX IMVI, with NCI-H23, in the experiment with NCI-H522, in the experiment on OVCAR-3, with OVCAR-8 and in the experiment on RPMI-8226 was > 100 µM (inactive) each time. Also, the GI50 with RXF 393 was > 100 µM (inactive); in the experiment with SF-539 it was > 100 µM (inactive); in the experiment with SK-MEL-2, > 100 µM (inactive); with SNB-75, 97.7 µM (inactive); with UACC-62 it was > 100 µM (inactive).
In the case of `OC(c1ccccn1)C1CNc2ccccc21` (stereo not drawn), the GI50 was > 100 µM (inactive) in the experiment on COLO 205; > 100 µM (inactive) in the experiment on EKVX; > 100 µM (inactive) with HCT-116; greater than 100 µM in the experiment on HCT-15; > 100 µM (inactive) in the experiment on HOP-92; > 100 µM (inactive) in the experiment on KM-20L2. Moreover, the GI50 with LOX IMVI, in the experiment with NCI-H23, in the experiment with NCI-H522, with OVCAR-3, with OVCAR-8 and in the experiment with RPMI-8226 was > 100 µM (inactive) throughout. Besides, the GI50 in the experiment on RXF 393 is > 100 µM (inactive); in the experiment with SF-539, > 100 µM (inactive); with SK-MEL-2 it was > 100 µM (inactive); with SNB-75, 22.1 µM (inactive); with UACC-62, > 100 µM (inactive).
As to `CN(C)c1ccc(/C=C2\C[N+](C)(C)C/C(=C\c3ccc(N(C)C)cc3)C2=O)cc1`, the GI50 was 2.61 µM (inactive) in the experiment on COLO 205; 38 µM (inactive) with EKVX; 8.93 µM (inactive) in the experiment on HCT-116; greater than 100 µM in the experiment on HCT-15; 19.4 µM (inactive) with HOP-92; 50 µM (inactive) in the experiment on Hs-578T. Also, the GI50 in the experiment with KM-20L2 is 12.9 µM (inactive); in the experiment with LOX IMVI, 14.9 µM (inactive); in the experiment on NCI-H23, 17.7 µM (inactive); in the experiment with NCI-H522, 9.66 µM (inactive); in the experiment on OVCAR-3, 5.9 µM (inactive); in the experiment with OVCAR-8, 23.9 µM (inactive). The GI50 in the experiment with RPMI-8226 was 3.47 µM (inactive); in the experiment with RXF 393, > 48.2 µM (inactive); with SF-539 it was 21.1 µM (inactive); in the experiment with SK-MEL-2, 14.9 µM (inactive); in the experiment on SNB-75, 17.1 µM (inactive); in the experiment on UACC-62, 13.6 µM (inactive).
For `CCOC(=O)NC(=O)c1cn(CCN2CCN(C(=O)NCCCCCCNC(=O)N3CCN(CCn4cc(C(=O)NC(=O)OCC)c(=O)[nH]c4=O)CC3)CC2)c(=O)[nH]c1=O`, the GI50 in the experiment with COLO 205 is > 100 µM (inactive); in the experiment with EKVX, > 100 µM (inactive); with HCT-116, > 100 µM (inactive); with HCT-15, greater than 100 µM; in the experiment with HOP-92, > 100 µM (inactive); with KM-20L2, > 100 µM (inactive). Also, the GI50 with LOX IMVI, in the experiment on NCI-H23, in the experiment on NCI-H522, in the experiment on OVCAR-3, in the experiment on OVCAR-8 and in the experiment on RPMI-8226 was > 100 µM (inactive) throughout. The GI50 with RXF 393, in the experiment on SF-539, in the experiment with SK-MEL-2, with SNB-75 and in the experiment on UACC-62 was > 100 µM (inactive) each time.
Take `COC(=O)C(CC(C)=O)CS(=O)(=O)CC(=O)C(=O)Nc1cccc([N+](=O)[O-])c1` (stereo not drawn): the GI50 is > 100 µM (inactive) in the experiment with COLO 205; > 100 µM (inactive) in the experiment with EKVX; > 100 µM (inactive) in the experiment with HCT-116; greater than 100 µM in the experiment on HCT-15; > 100 µM (inactive) in the experiment with HOP-92; > 100 µM (inactive) in the experiment with KM-20L2. The GI50 in the experiment with LOX IMVI, with NCI-H23, in the experiment on NCI-H522, with OVCAR-3, in the experiment on OVCAR-8 and in the experiment on RPMI-8226 was > 100 µM (inactive) each time. The GI50 with RXF 393, in the experiment on SF-539, with SK-MEL-2, in the experiment on SNB-75 and with UACC-62 was > 100 µM (inactive) throughout.
Regarding `O=C(O)CCC(O)=C1S(=O)(=O)OCCOS1(=O)=O`, the GI50 in the experiment on COLO 205 is > 100 µM (inactive); in the experiment on EKVX, > 100 µM (inactive); with HCT-116 it was > 100 µM (inactive); with HCT-15, greater than 100 µM; in the experiment with HOP-92, > 100 µM (inactive); with Hs-578T, > 100 µM (inactive). For the same molecule, the GI50 in the experiment on KM-20L2, in the experiment on LOX IMVI, with MDA-N, in the experiment on NCI-H23, in the experiment on NCI-H522 and in the experiment on OVCAR-3 was > 100 µM (inactive) in each case. In addition, the GI50 in the experiment on OVCAR-8, in the experiment on PC-3, with RPMI-8226, in the experiment with RXF 393, in the experiment with SF-539 and in the experiment with SK-MEL-2 was > 100 µM (inactive) each time. Moreover, the GI50 with SNB-75 and with UACC-62 was > 100 µM (inactive) throughout.
With `COc1ccc(NS(=O)(=O)c2ccc(/N=C3\C=C(Nc4ccc(S(=O)(=O)Nc5ccc(OC)nn5)cc4)C(=O)c4ccccc43)cc2)nn1`, the GI50 is 17.7 µM (inactive) in the experiment on COLO 205; 24.8 µM (inactive) with EKVX; 17.5 µM (inactive) in the experiment on HCT-116; 17 µM with HCT-15; 31 µM (inactive) in the experiment on HOP-92; 17.9 µM (inactive) with KM-20L2. Further, the GI50 in the experiment with LOX IMVI was 16.7 µM (inactive); in the experiment with NCI-H23, 16.2 µM (inactive); with NCI-H522 it was 17 µM (inactive); in the experiment with OVCAR-3, 21 µM (inactive); in the experiment on OVCAR-8 it was 17.2 µM (inactive); in the experiment on RPMI-8226, 53.7 µM (inactive). For the same molecule, the GI50 is 18.4 µM (inactive) with RXF 393; 17.7 µM (inactive) with SF-539; 16.9 µM (inactive) in the experiment with SK-MEL-2; 19.8 µM (inactive) in the experiment with SNB-75; 18.6 µM (inactive) in the experiment with UACC-62.

These data come from ChEMBL document CHEMBL1201862, “PubChem BioAssay data set” (2004).
